Source: patent US4448717A, “Pharmacologically active peptides” (Eli Lilly and Company, priority 1982, dated 1984)

Columns and labels:
mouse (Harlan ND4) = test: mouse hot plate test (mouse jump); assay type: in vivo; conditions: subcutaneous injection, 15 minutes after administration, hot plate 55° C., dose producing analgesia in 50% of mice
Protocol: In this test, an upright acrylic cylinder comprising, as its base, a hot plate surface which is maintained at 55° C. is used. A mouse (Harlan ND4) is given, by subcutaneous injection, a predetermined amount of test compound dissolved or suspended in a suitable carrier, and, 15 minutes after administration of the test compound, the mouse is placed on the hot plate surface. The latency in seconds until the mouse jumps from the hot plate surface is measured. […] This must occur in a dose range which produces no motor incoordination or incapacitation. The following Table records ED50 results obtained from this test. By the term "ED50 " is meant that dose which produces analgesia in 50% of the mice tested. Analgesia is defined as a response latency in the presence of test compound that is equal to or greater than the control response latency plus two standard deviations. The percent analgesia data are converted to probits, and the ED50 is calculated by regression analysis of the dose-response data. Each dose response curve must have at least four points, and each point is determined using data from a minimum of ten treated mice and ten control mice.

enkephalin (δ) receptor = target: T1, enkephalin (δ) receptor (Mus musculus, UniProt P32300); test: mouse vas deferens assay; assay type: cell-based; conditions: depression of 50% of the electrically evoked contraction, field stimulation 0.15 Hz, 37° C.
T1 construct: from tissue; host or cells: mouse vas deferens (Harlan ND4 mice)
T1 sequence (P32300 whole entry): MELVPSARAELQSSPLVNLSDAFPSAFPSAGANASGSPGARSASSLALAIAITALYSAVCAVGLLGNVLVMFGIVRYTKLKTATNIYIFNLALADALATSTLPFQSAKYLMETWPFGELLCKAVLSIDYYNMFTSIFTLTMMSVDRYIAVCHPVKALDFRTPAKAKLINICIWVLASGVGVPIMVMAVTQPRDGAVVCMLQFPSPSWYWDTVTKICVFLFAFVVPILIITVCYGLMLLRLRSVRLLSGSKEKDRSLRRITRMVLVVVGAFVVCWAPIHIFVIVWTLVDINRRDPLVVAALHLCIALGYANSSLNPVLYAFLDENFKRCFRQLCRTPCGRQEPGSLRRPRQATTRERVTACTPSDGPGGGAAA
Protocol: In the mouse vas deferens test, single mouse vas deferens from mature mice (Harlan ND4, 30-40 g.) are suspended in 3 ml. of modified Kreb's solution aerated with 95% O2 -5% CO2 and maintained at 37° C. The twitch induced by field stimulation (0.15 Hz, 1 msec., 40V) is recorded on a polygraph via an isometric transducer. The test compound is added to the bath in 20 to 30 μl. aliquots. A dose-response curve is constructed by cumulative addition of appropriate amounts of the compound to the bath. Comparison of relative agonist potency at the δ receptor is made on the basis of IC50 values (concentration causing depression of 50% of the electrically evoked contraction).
The Table following also provides results for compounds of this invention when tested in the mouse vas deferens assay.

mice = conditions: cited from earlier work

| Compound | Mouse Jump ED50 (mouse (Harlan ND4)) | IC50 (enkephalin (δ) receptor) | analgesic activity when administered parenterally (mice) |
| --- | --- | --- | --- |
| CC(=O)C(Cc1ccccc1)NC(=O)CNC(=O)[C@@H](C)NC(=O)[C@@H](N)Cc1ccc(O)cc1 (stereo partly drawn) [Example 1, L-Tyrosyl-D-alanyl-N-(2-oxo-1-benzylpropyl)glycinamide] | 3.2 mg/kg | 0.49 nM | – |
| CCN(C(=O)CNC(=O)[C@@H](C)NC(=O)[C@@H](N)Cc1ccc(O)cc1)[C@@H](Cc1ccccc1)C(C)=O [Example 2, L-Tyrosyl-D-alanyl-N-ethyl-N-(2-oxo-1-benzylpropyl)glycinamide] | 0.006 mg/kg | 0.71 nM | – |
| H-Tyr-Gly-Gly-Phe-Met-OH [methionine enkephalin] | – | – | practically devoid of any useful analgesic activity |
